In ChEMBL document CHEMBL4330132, “5-Keto-3-cyano-2,4-diaminothiophenes as selective maternal embryonic leucine zipper kinase inhibitors” (Bioorg Med Chem Lett, 2019) one finds Activity data, which are given here for one molecule.

For test [1], the target named is Cyclin-dependent kinase-like 2 (Homo sapiens) (UniProt Q92772). The test can be described thus: Binding affinity to wild-type human partial length CDKL2 (M1 to D327 residues) expressed in bacterial expression system assessed as residual binding level at 1 uM by Kinomescan method relative to control.
Sequence of Cyclin-dependent kinase-like 2 (Homo sapiens) (Q92772 whole entry, the tested form may be a part): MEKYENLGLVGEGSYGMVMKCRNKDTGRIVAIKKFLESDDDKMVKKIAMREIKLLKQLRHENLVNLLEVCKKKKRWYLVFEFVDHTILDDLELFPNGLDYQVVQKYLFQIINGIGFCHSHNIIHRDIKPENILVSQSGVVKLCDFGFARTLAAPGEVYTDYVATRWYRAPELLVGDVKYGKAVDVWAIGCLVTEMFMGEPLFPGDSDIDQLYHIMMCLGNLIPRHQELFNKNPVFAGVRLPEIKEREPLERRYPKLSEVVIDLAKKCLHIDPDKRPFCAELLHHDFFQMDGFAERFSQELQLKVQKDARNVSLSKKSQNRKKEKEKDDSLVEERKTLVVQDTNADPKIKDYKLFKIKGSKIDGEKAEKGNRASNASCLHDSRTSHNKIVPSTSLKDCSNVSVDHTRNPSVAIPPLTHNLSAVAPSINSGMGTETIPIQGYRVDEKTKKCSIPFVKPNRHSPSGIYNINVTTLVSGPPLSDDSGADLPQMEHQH
For test [2], the target named is Serine/threonine-protein kinase 24 (Homo sapiens) (UniProt Q9Y6E0). The test can be described thus: Binding affinity to wild-type human partial length MST3 (A30 to S311 residues) expressed in bacterial expression system assessed as residual binding level at 1 uM by Kinomescan method relative to control.
Test [3] deals with Receptor-type tyrosine-protein kinase FLT3 (Homo sapiens), P36888 [D835H]. Put plainly: Binding affinity to human partial length FLT3 D835H mutant (V592 to Y969 residues) expressed in bacterial expression system assessed as residual binding level at 1 uM by Kinomescan method relative to control.
Test [4] concerns the target Glycogen synthase kinase-3 beta (Homo sapiens) (UniProt P49841). The test can be described thus: Binding affinity to wild-type human full length GSK3B (M1 to T433 residues) expressed in mammalian expression system assessed as residual binding level at 1 uM by Kinomescan method relative to control.
The subject of test [5] is Tyrosine-protein kinase ABL1 (Homo sapiens), P00519 [F317I]. Put plainly: Binding affinity to human phosphorylated ABL1 F317I mutant (S229 to K512 residues) expressed in mammalian expression system assessed as residual binding level at 1 uM by Kinomescan method relative to control.
For test [6], the target named is LIM domain kinase 2 (Homo sapiens) (UniProt P53671). Put plainly: Binding affinity to wild-type human full length LIMK2 (M1 to P638 residues) expressed in bacterial expression system assessed as residual binding level at 1 uM by Kinomescan method relative to control.
In test [7] the target is Death-associated protein kinase 1 (Homo sapiens) (UniProt P53355). The test can be described thus: Binding affinity to wild-type human partial length DAPK1 (M1 to F296 residues) expressed in bacterial expression system assessed as residual binding level at 1 uM by Kinomescan method relative to control.
Test [8] deals with Tyrosine-protein kinase ABL2 (Homo sapiens) (UniProt P42684). The test can be described thus: Binding affinity to wild-type human ABL2 (A248 to G542 residues) expressed in bacterial expression system assessed as residual binding level at 1 uM by Kinomescan method relative to control.
Sequence of Tyrosine-protein kinase ABL2 (Homo sapiens) (P42684 whole entry, the tested form may be a part): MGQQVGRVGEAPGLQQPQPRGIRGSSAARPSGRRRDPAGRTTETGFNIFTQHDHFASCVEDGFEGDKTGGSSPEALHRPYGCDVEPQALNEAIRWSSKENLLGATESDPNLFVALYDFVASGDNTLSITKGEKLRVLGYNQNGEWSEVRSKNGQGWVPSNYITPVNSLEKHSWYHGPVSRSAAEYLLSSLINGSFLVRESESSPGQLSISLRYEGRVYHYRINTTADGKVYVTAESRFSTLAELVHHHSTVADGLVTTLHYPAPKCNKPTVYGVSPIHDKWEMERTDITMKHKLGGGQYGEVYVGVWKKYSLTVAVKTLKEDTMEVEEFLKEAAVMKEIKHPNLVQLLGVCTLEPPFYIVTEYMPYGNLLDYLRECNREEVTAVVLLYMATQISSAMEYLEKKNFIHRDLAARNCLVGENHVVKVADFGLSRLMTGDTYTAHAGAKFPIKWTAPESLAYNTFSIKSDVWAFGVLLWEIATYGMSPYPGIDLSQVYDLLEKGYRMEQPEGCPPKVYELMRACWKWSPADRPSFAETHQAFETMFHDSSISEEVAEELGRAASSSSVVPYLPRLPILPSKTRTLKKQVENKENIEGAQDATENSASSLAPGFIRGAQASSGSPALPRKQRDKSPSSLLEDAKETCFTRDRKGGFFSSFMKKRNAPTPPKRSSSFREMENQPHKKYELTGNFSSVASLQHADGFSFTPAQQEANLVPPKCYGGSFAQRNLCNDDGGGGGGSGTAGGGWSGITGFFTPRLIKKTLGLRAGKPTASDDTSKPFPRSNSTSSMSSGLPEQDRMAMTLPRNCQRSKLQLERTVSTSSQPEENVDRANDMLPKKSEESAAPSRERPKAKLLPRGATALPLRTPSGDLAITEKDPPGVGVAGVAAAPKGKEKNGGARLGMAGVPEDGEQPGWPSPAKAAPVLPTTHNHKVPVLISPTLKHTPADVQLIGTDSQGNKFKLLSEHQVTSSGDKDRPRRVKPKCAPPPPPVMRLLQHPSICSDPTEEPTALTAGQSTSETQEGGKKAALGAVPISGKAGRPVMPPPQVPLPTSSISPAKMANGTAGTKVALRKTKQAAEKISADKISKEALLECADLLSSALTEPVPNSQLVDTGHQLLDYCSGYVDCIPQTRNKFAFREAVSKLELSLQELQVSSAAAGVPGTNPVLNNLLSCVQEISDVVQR
Test [9] has as its target Activin receptor type-1-like (Homo sapiens) (UniProt P37023). The test can be described thus: Binding affinity to wild-type human ACVRL1 (L164 to Q503 residues) expressed in bacterial expression system assessed as residual binding level at 1 uM by Kinomescan method relative to control.
The target in test [10] is Phosphatidylinositol 4-phosphate 3-kinase C2 domain-containing subunit beta (Homo sapiens) (UniProt O00750). Put plainly: Binding affinity to wild-type human partial length PIK3C2B (M1 to L1634 residues) expressed in mammalian expression system assessed as residual binding level at 1 uM by Kinomescan method relative to control.
The test system of test [11] is Receptor-type tyrosine-protein kinase FLT3 (Homo sapiens), P36888 [K663Q]. The test can be described thus: Binding affinity to human partial length FLT3 K663Q mutant (V592 to Y969 residues) expressed in bacterial expression system assessed as residual binding level at 1 uM by Kinomescan method relative to control.
The target in test [12] is Aurora kinase C (Homo sapiens) (UniProt Q9UQB9). The test can be described thus: Binding affinity to wild-type human full length AURKC (M1 to S275 residues) expressed in bacterial expression system assessed as residual binding level at 1 uM by Kinomescan method relative to control.
In test [13] the target is TGF-beta receptor type-1 (Homo sapiens) (UniProt P36897). The test can be described thus: Binding affinity to wild-type human partial length TGFBR1 (D179 to M503 residues) expressed in bacterial expression system assessed as residual binding level at 1 uM by Kinomescan method relative to control.
Test [14] concerns the target Serine/threonine-protein kinase 35 (Homo sapiens) (UniProt Q8TDR2). Put plainly: Binding affinity to wild-type human partial length STK35 (G182 to A534 residues) expressed in bacterial expression system assessed as residual binding level at 1 uM by Kinomescan method relative to control.
Test [15] relates to Mast/stem cell growth factor receptor Kit (Homo sapiens), P10721 [L576P]. Put plainly: Binding affinity to human partial length KIT L576P mutant (Y545 to D952 residues) expressed in bacterial expression system assessed as residual binding level at 1 uM by Kinomescan method relative to control.
The target of test [16] is Mitogen-activated protein kinase kinase kinase 9 (Homo sapiens) (UniProt P80192). The test can be described thus: Binding affinity to wild-type human partial length MLK1 (V88 to W426 residues) expressed in bacterial expression system assessed as residual binding level at 1 uM by Kinomescan method relative to control.
Test [17] addresses Tyrosine-protein kinase Fer (Homo sapiens) (UniProt P16591). The test can be described thus: Binding affinity to wild-type human partial length FER (S542 to T822 residues) expressed in bacterial expression system assessed as residual binding level at 1 uM by Kinomescan method relative to control.
Test [18] has as its target Mitogen-activated protein kinase kinase kinase kinase 1 (Homo sapiens) (UniProt Q92918). Put plainly: Binding affinity to wild-type human full length HPK1 (M1 to R799 residues) expressed in bacterial expression system assessed as residual binding level at 1 uM by Kinomescan method relative to control.
Test [19] deals with Mitogen-activated protein kinase 15 (Homo sapiens) (UniProt Q8TD08). The test can be described thus: Binding affinity to wild-type human partial length ERK8 (M1 to P437 residues) expressed in bacterial expression system assessed as residual binding level at 1 uM by Kinomescan method relative to control.
Sequence of Mitogen-activated protein kinase 15 (Homo sapiens) (Q8TD08 whole entry, the tested form may be a part): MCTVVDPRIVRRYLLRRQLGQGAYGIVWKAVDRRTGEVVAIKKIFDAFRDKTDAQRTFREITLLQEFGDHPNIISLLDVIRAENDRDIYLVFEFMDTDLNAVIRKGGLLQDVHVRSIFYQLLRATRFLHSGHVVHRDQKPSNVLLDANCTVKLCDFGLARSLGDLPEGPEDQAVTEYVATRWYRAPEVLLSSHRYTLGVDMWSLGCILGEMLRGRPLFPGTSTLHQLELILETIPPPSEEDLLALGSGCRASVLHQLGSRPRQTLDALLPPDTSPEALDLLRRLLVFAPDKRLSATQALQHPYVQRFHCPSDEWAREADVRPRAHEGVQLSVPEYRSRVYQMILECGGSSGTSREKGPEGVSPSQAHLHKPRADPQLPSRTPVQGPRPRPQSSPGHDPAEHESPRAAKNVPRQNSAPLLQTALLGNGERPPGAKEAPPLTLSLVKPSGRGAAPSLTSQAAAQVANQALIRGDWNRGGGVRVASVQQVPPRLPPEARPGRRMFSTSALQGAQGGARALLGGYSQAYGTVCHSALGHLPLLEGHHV
In test [20] the target is Mitogen-activated protein kinase kinase kinase 10 (Homo sapiens) (UniProt Q02779). The test can be described thus: Binding affinity to wild-type human partial length MLK2 (V52 to W380 residues) expressed in bacterial expression system assessed as residual binding level at 1 uM by Kinomescan method relative to control.
Sequence of Mitogen-activated protein kinase kinase kinase 10 (Homo sapiens) (Q02779 whole entry, looked up, the tested form may be a part): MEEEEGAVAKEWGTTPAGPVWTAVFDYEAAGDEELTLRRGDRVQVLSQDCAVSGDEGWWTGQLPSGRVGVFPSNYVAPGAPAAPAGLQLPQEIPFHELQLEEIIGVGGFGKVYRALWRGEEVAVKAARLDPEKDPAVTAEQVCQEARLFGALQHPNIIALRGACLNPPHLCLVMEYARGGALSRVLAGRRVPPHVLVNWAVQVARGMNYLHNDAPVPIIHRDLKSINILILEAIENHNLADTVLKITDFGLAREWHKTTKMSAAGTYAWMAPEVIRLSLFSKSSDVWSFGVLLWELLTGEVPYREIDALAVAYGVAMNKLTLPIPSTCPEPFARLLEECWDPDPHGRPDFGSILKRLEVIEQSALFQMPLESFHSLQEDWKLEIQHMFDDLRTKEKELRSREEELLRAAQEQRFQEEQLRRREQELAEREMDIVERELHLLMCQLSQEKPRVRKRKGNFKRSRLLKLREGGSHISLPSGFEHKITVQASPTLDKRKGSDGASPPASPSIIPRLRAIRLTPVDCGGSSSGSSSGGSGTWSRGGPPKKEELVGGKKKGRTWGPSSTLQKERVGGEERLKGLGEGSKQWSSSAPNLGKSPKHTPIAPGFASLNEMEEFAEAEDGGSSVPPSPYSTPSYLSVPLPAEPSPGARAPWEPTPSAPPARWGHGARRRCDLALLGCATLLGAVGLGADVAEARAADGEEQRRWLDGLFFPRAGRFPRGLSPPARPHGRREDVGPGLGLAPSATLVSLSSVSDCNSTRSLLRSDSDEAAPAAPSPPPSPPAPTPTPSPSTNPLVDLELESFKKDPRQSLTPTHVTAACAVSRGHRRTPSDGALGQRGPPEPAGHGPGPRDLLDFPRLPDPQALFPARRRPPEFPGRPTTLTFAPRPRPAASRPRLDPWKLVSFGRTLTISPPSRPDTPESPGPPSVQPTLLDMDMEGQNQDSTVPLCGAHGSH
Test [21] deals with Tyrosine-protein kinase ABL1 (Homo sapiens), P00519 [T315I]. Put plainly: Binding affinity to human phosphorylated ABL1 T315I mutant (S229 to K512 residues) expressed in mammalian expression system assessed as residual binding level at 1 uM by Kinomescan method relative to control.
Test [22] has as its target Phosphatidylinositol 4-phosphate 5-kinase type-1 alpha (Homo sapiens) (UniProt Q99755). The test can be described thus: Binding affinity to wild-type human full length PIP5K1A (M1 to H562 residues) expressed in bacterial expression system assessed as residual binding level at 1 uM by Kinomescan method relative to control.
Test [23] has as its target Mitogen-activated protein kinase 14 (Homo sapiens) (UniProt Q16539). Put plainly: Binding affinity to wild-type human full length p38-alpha (M1 to S360 residues) expressed in bacterial expression system assessed as residual binding level at 1 uM by Kinomescan method relative to control.
For test [24], the target named is Serine/threonine-protein kinase LATS1 (Homo sapiens) (UniProt O95835). Put plainly: Binding affinity to wild-type human partial length LATS1 (Q678 to V1130 residues) expressed in bacterial expression system assessed as residual binding level at 1 uM by Kinomescan method relative to control.

Sequence of Phosphatidylinositol 4-phosphate 5-kinase type-1 alpha (Homo sapiens) (Q99755 whole entry, the tested form may be a part): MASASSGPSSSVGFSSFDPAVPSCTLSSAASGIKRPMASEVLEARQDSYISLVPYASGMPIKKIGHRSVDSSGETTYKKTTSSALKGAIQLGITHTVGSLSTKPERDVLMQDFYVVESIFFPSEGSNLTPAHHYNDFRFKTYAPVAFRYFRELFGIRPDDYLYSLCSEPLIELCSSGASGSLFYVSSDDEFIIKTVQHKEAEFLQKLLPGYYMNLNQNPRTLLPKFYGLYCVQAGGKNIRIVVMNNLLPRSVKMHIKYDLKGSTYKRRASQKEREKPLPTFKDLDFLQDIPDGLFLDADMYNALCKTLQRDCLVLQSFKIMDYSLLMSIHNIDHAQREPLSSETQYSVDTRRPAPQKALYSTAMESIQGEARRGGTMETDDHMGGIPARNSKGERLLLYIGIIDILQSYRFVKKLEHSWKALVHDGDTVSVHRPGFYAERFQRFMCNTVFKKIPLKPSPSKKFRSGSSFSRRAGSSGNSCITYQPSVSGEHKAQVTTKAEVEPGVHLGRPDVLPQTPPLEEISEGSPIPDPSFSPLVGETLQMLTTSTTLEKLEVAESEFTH
Sequence of Serine/threonine-protein kinase 35 (Homo sapiens) (Q8TDR2 whole entry, the tested form may be a part): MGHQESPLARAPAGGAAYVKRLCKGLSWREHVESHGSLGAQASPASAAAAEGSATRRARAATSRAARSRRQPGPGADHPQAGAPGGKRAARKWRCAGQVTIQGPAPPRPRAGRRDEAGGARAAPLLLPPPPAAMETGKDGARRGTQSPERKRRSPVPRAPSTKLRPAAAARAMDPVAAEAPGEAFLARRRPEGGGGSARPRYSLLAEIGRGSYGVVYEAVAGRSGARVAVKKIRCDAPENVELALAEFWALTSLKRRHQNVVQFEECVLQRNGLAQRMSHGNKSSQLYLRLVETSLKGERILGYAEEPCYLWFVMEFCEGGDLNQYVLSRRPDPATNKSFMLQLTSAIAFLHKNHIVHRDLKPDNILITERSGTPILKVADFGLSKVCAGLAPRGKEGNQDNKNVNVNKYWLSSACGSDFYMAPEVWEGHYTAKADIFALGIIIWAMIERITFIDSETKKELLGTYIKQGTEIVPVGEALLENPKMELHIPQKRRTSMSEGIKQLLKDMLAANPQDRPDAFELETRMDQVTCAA
Sequence of Activin receptor type-1-like (Homo sapiens) (P37023 whole entry, the tested form may be a part): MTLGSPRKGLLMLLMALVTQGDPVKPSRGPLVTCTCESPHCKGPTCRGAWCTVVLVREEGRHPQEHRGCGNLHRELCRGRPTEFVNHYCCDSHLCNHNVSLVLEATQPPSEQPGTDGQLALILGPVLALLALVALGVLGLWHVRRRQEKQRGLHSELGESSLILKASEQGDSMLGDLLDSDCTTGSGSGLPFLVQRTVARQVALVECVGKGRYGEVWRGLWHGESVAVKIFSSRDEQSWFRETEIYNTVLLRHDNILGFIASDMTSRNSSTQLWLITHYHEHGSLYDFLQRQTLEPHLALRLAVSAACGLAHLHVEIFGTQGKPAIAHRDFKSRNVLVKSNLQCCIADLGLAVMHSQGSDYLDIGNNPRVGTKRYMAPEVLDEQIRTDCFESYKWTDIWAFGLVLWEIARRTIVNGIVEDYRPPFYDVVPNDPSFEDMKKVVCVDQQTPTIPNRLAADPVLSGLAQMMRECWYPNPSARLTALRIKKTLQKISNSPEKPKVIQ

As for `CC(C)Nc1sc(C(=O)c2ccc(Cl)s2)c(N)c1C#N`, the Activity in test [1] turned out to be 80%; in test [2], 99%; in [3], 60%; in test [4], 97%; in [5] it was 100%; in test [6], 100%. The Activity amounted to 100% in [7]; 95% in test [8]; 100% in [9]; 100% in test [10]; 96% in test [11]; 100% in test [12]. Besides, the Activity was determined as 100% in test [13]; 80% in [14]; 64% in [15]; 98% in test [16]; 81% in test [17]; 100% in test [18]. Also, the Activity in [19] worked out at 82%; in test [20], 100%; in test [21], 100%; in test [22] it was 81%; in [23], 95%; in test [24] it was 98%.
